Test results: patent US10106526B2, “Inhibitors of cyclin-dependent kinase 7 (CDK7)” (SYROS PHARMACEUTICALS, INC., priority 2014, dated 2018)

Tests used:
CDK7 = target: T1, CDK7 (Homo sapiens, UniProt P50613); assay: CDK7 kinase activity, Adapta kinase assay (Life Technologies); format: biochemical; details: Adapta kinase assay at Life Technologies; 10 μM down to 0.514 nM, 3-fold serial dilutions; read-out: CDK7 Inhibition (IC50)
T1 construct: purchased Life Technologies (Adapta kinase assay service)
T1 sequence (P50613 whole entry): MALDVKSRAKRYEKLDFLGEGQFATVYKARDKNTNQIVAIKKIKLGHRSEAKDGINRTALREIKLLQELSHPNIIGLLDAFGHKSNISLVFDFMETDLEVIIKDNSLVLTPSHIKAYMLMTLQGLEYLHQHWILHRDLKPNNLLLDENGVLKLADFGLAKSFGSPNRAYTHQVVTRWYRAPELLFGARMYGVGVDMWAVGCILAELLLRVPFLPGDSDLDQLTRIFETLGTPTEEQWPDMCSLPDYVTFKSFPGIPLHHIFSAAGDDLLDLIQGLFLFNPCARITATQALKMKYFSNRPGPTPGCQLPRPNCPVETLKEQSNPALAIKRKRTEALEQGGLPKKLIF
T1 sequence (P51946 whole entry partner): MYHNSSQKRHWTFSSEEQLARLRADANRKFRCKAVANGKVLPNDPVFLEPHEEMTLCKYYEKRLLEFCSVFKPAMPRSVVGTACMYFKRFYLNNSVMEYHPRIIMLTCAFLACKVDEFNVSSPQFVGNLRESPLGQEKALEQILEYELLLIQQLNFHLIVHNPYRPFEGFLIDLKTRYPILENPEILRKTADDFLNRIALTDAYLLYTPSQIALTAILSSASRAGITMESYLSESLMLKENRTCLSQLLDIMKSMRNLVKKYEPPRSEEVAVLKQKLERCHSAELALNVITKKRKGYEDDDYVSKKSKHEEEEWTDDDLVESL
T1 sequence (P51948 whole entry partner): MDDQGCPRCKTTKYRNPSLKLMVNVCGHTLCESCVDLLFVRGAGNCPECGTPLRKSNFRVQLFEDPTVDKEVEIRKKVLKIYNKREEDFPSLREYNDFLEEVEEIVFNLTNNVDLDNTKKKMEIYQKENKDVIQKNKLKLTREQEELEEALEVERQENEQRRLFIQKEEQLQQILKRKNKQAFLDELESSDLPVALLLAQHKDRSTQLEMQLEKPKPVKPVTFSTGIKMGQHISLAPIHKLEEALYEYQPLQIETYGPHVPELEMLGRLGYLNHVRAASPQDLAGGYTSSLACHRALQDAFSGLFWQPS
In short: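 Adapta kinase activity assay run as a commercial service; substrates not specified here. Compounds tested in 3-fold serial dilutions from 10 μM down to 0.514 nM.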

[1] = target: CDK7/Cyclin H/MAT1 trimeric complex (Homo sapiens, UniProt P50613); assay: CDK7 kinase assay, Caliper/LabChip EZ Reader (Biortus Biosciences); format: biochemical; details: CDK7/Cyclin H/MAT1 10 nM, ATP 2 mM, FAM-CDK7tide 2 μM, 30 min incubation, read-out: CDK7 Inhibition (IC50)
Sequence of CDK7/Cyclin H/MAT1 trimeric complex (P50613 whole entry): as the sequence (P50613 whole entry) above
Sequence of CDK7/Cyclin H/MAT1 trimeric complex (P51946 whole entry partner): as the sequence (P51946 whole entry partner) above
Sequence of CDK7/Cyclin H/MAT1 trimeric complex (P51948 whole entry partner): as the sequence (P51948 whole entry partner) above
Experimental: Compounds of the invention were further assayed for CDK7 activity at Biortus Biosciences (Jiangyin, Jiangsu Province, P.R. of China) using a CDK7 kinase assay developed with a Caliper/LabChip EZ Reader (Perkin Elmer, Waltham, Mass.). […] The incubation period was chosen such that the total fraction of phosphorylated peptide product produced was <20% for the uninhibited kinase.

A673 cells = assay: Inhibition of proliferation of A673 cells (CyQUANT, 72 hour); format: cell-based, human; details: 72 hour proliferation
In short: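 Human Ewing's sarcoma A673 cells in DMEM + 10% FBS + 1 mM sodium pyruvate, 37 °C, 5% CO2, exposed to compounds from 4 μM to 126.4 pM (0.5 log dilutions) for 72 h. Proliferation read by CyQUANT; IC50 reported as binned categories.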

Jurkat cells = assay: Inhibition of proliferation of Jurkat cells (CellTiter-Glo, 72 hour); format: cell-based, human; details: 10 μM to 316 pM
In short: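 Human T-cell leukemia Jurkat cells in RPMI 1640 with 10% FBS were exposed 72 h at 37 °C, 5% CO2 to compounds from 10 μM to 316 pM in 0.5-log steps. Anti-proliferative effect measured by CellTiter-Glo; IC50 reported in binned categories.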

Molecule | IC50 (CDK7) | IC50 [1] | IC50 (Jurkat cells; Homo sapiens) | IC50 (Jurkat cells) | IC50 (A673 cells; Homo sapiens) | IC50 (A673 cells)
C=CC(=O)N1CCC(C(=O)N[C@H]2CCC[C@@H](Nc3ncc(Cl)c(-c4c[nH]c5ccccc45)n3)C2)CC1 [Compound 118, 1-acryloyl-N-((1S,3R)-3-(5-chloro-4-(1H-indol-3-yl)pyrimidin-2-ylamino)cyclohexyl)piperidine-4-carboxamide] | < 100 nM | < 100 nM | < 500 nM |  | < 500 nM | 
C=CC(=O)N1CCC(NC[C@H]2CCC[C@@H](Nc3ncc(Cl)c(-c4c[nH]c5ccccc45)n3)C2)CC1 [Compound 127, 1-[4-[[(1S,3R)-3-[[5-chloro-4-(1H-indol-3-yl)pyrimidin-2-yl]amino]cyclohexyl]methylamino]-1-piperidyl]prop-2-en-1-One] | < 100 nM | < 100 nM | > 5000 nM |  | < 500 nM | 
CN(C)C/C=C/C(=O)N1CCC(C(=O)N2CC[C@@H](Nc3ncc(Cl)c(-c4c[nH]c5ccccc45)n3)C2)CC1 [Compound 213, (E)-1-[4-[(3R)-3-[[5-chloro-4-(1H-indol-3-yl)pyrimidin-2-yl]amino]pyrrolidine-1-carbonyl]-1-piperidyl]-4-(dimethylamino)but-2-en-1-One] | < 100 nM | < 100 nM | > 5000 nM |  | < 500 nM | 
CN(C)C/C=C/C(=O)Nc1ccc(C(=O)N[C@H]2CCC[C@@H](Nc3ncc(C#N)c(-c4c[nH]c5ccccc45)n3)C2)nc1 [Compound 110, N-((1S,3R)-3-(5-cyano-4-(1H-indol-3-yl)pyrimidin-2-ylamino)cyclohexyl)-5-((E)-4-(dimethylamino)but-2-enamido)picolinamide] | < 100 nM | < 100 nM | < 500 nM |  | < 500 nM | 
C=CC(=O)N1CCCC(C(=O)N[C@H]2CC[C@H](Nc3ncc(Cl)c(-c4c[nH]c5ccccc45)n3)CC2)C1 (stereo partly shown) [Compound 158, 1-acryloyl-N-((1r,4r)-4-(5-chloro-4-(1H-indol-3-yl)pyrimidin-2-ylamino)cyclohexyl)piperidine-3-carboxamide] | < 100 nM | < 100 nM | 500 to 5000 nM |  |  | 
CN(C)C/C=C/C(=O)N1CCC(O)(CN(C)[C@H]2CCC[C@@H](Nc3ncc(Cl)c(-c4c[nH]c5ccccc45)n3)C2)CC1 [Compound 228] | < 100 nM | < 100 nM |  | 500 to 5000 nM |  | < 500 nM
C=CC(=O)N1CCC[C@@H]1C(=O)N[C@H]1CCC[C@@H](Nc2ncc(Cl)c(-c3c[nH]c4ccccc34)n2)C1 [Compound 173, (R)-1-acryloyl-N-((1S,3R)-3-(5-chloro-4-(1H-indol-3-yl)pyrimidin-2-ylamino)cyclohexyl)pyrrolidine-2-carboxamide] | < 100 nM | < 100 nM | 500 to 5000 nM |  |  | 

Continued, in another order:

IC50 (CDK7) | IC50 [1] | IC50 (Jurkat cells; Homo sapiens) | IC50 (Jurkat cells) | Molecule | IC50 (A673 cells; Homo sapiens) | IC50 (A673 cells)
< 100 nM | < 100 nM | < 500 nM |  | C=CC(=O)N1CCC[C@H]1C(=O)N[C@H]1CCC[C@@H](Nc2ncc(Cl)c(-c3c[nH]c4ccccc34)n2)C1 [Compound 115, (S)-1-acryloyl-N-((1S,3R)-3-(5-chloro-4-(1H-indol-3-yl)pyrimidin-2-ylamino)cyclohexyl)pyrrolidine-2-carboxamide] | < 500 nM | 
< 100 nM | < 100 nM |  | < 500 nM | 4-trans-acrylamido-N-((1S,3R)-3-(5-chloro-4-(1H-indol-3-yl)pyrimidin-2-ylamino)cyclohexyl)cyclohexanecarboxamide [Compound 117] |  | < 500 nM
< 100 nM | < 100 nM | > 5000 nM |  | C=CC(=O)N1CCC(NC[C@@H]2CCC[C@H](Nc3ncc(Cl)c(-c4c[nH]c5ccccc45)n3)C2)CC1 [Compound 212, 1-[4-[[(1R,3S)-3-[[5-chloro-4-(1H-indol-3-yl)pyrimidin-2-yl]amino]cyclohexyl]methylamino]-1-piperidyl]prop-2-en-1-One] | < 500 nM | 
< 100 nM | < 100 nM |  | < 500 nM | C=CC(=O)N1CCN(C2CCCC(Nc3ncc(Cl)c(-c4c[nH]c5ccccc45)n3)C2)CC1C (stereo not shown) [Compound 232] |  | < 500 nM
< 100 nM | < 100 nM |  | 500 to 5000 nM | C=CC(=O)N1CCC2(CC1)CN([C@H]1CCC[C@@H](Nc3ncc(Cl)c(-c4c[nH]c5ccccc45)n3)C1)C(=O)O2 [Compound 186] |  | < 500 nM
< 100 nM | < 100 nM |  | < 500 nM | CN(C)CC=CC(=O)N1CCN(C2CCCC(Nc3ncc(Cl)c(-c4c[nH]c5ccccc45)n3)C2)CC1 (stereo not shown) [Compound 237] |  | < 500 nM
< 100 nM | < 100 nM |  | 500 to 5000 nM | C=CC(=O)N1CCN(C2CCCC(Nc3ncc(Cl)c(-c4c[nH]c5ccccc45)n3)C2)CC1C (stereo not shown) [Compound 229] |  | < 500 nM
< 100 nM | 100 to 1000 nM | > 5000 nM |  | C=CC(=O)Nc1cnc(C(=O)N[C@H]2CCC[C@@H](Nc3ncc(Cl)c(-c4c[nH]c5ccccc45)n3)C2)nc1 [Compound 112, 5-acrylamido-N-((1S,3R)-3-(5-chloro-4-(1H-indol-3-yl)pyrimidin-2-ylamino)cyclohexyl)pyrimidine-2-carboxamide] | < 500 nM | 
< 100 nM | < 100 nM |  | 500 to 5000 nM | CC1CN(C2CCCC(Nc3ncc(Cl)c(-c4c[nH]c5ccccc45)n3)C2)CCN1C(=O)C=CCN(C)C (stereo not shown) [Compound 230] |  | < 500 nM
< 100 nM | < 100 nM | < 500 nM |  | CN(C)C/C=C/C(=O)Nc1cnc(C(=O)N[C@H]2CCC[C@@H](Nc3ncc(Cl)c(-c4c[nH]c5ccccc45)n3)C2)nc1 [Compound 113, N-((1S,3R)-3-(5-chloro-4-(1H-indol-3-yl)pyrimidin-2-ylamino)cyclohexyl)-5-((E)-4-(dimethylamino)but-2-enamido)pyrimidine-2-carboxamide] | < 500 nM | 
< 100 nM | < 100 nM | < 500 nM |  | C=CC(=O)N1CCC[C@@H](C(=O)N[C@H]2CCC[C@@H](Nc3ncc(Cl)c(-c4c[nH]c5ccccc45)n3)C2)C1 [Compound 174, (R)-1-acryloyl-N-((1S,3R)-3-(5-chloro-4-(1H-indol-3-yl)pyrimidin-2-ylamino)cyclohexyl)piperidine-3-carboxamide] | < 500 nM | 
